The subject of experiment [1] is Klebsiella pneumoniae ATCC 13883. Put plainly: MIC against Gram-negative bacteria. The class given is cell-based. The source says:
(§1) Bacteria included the Bort strain of E. coli (Bortolussi, et al., Inf. Immun., 25:293, 1979) that was originally derived from a case of neonatal meningitis, and which is therefore considered a relevant pathogenic strain to study, and the 0111:B4 strain of E. coli (kindly provided by Dr. D. Morrison) which is a standard source of endotoxin. (Kelly, et al., Inf. Immun., 59:4491, 1991). In addition, P. aeruginosa PA01 strain H103, P. aeruginosa M2, P. aeruginosa K799, Eschericha coli UB 1005, Enterobacter cloacae 218S, Salmonella typhimurium MS7953s, Klebsiella pneumoniae ATCC 13883, Xanthomonas maltophilia ATCC 13637, and Acinetobacter calcoacetious 8193 were employed. LPS was obtained from E. coli Bort by the technique of Westphal and Jann, (Westphal, et al., Acad. Press, Inc. NY., 5:83) and from P. aeruginosa H103 by the method of Darveau and Hancock, (Darveau, et al., J. Bacteriol, 155:831, […]). E. coli 0111:B4 LPS was purchased from Sigma.

In experiment [2] the test system is Acinetobacter calcoaceticus 8193. The experiment is described as follows: MIC against Gram-negative bacteria. The class given is cell-based.
Description: as §1

Experiment [3] deals with Xanthomonas maltophilia ATCC 13637. The experiment is described as follows: MIC against Gram-negative bacteria. The class given is cell-based.
Description: as §1

The test system of experiment [4] is P. aeruginosa H309 or E. cloacae 218R1. Put plainly: Lysozyme lysis assay (outer membrane permeabilization). Particulars: 50 μg/ml lysozyme, varying concentrations of compound. The class given is cell-based, Pseudomonas aeruginosa; Enterobacter cloacae. How it is done:
Membrane permeabilization by polycationic compounds was measured in two different assays. The first assay measured membrane disruption by the ability of lysozyme to reach the periplasm and cause cell lysis. […] The uptake of lysozyme into whole cells due to membrane permeabilization by various compounds was previously described in Hancock, et al., Antimicrobial Agents and Chemo., 19:777, 1981. Overnight cultures of P. aeruginosa H309 or E. cloacae 218R1 grown in LB-S were diluted 1 in 50 in fresh medium and grown to an OD600 =0.5-0.6. The cells were harvested in a Silencer H-103N clinical centrifuge at 1800 g for 10 min, washed once with one volume of assay buffer (5 mM HEPES pH 7.2, 5 mM KCN), and resuspended in the same buffer to an OD600 of 0.5. Assays consisted of 600 μl of cells with 50 μg/ml of chicken egg white lysozyme and varying concentrations of cationic compounds. Cell lysis was measured as a decrease in the OD600 in a Perkin-Elmer dual beam spectrophotometer. Parallel experiments performed without lysozyme enabled the measurement of the lytic activity of the compounds themselves. To test whether or not permeability to lysozyme could be inhibited by divalent cations, various concentrations of MgCl2 were added to the assay after the addition of lysozyme and before the addition of the test compound.

The test system of experiment [5] is LPS-induced circulating TNF. Put plainly: Circulating TNF response to LPS in galactosamine-sensitized mice. The class given is in vivo. How it is done: With a challenge dose of 10 μg or E. coli 0111:B4 LPS, 100% of control mice (i.e., no cationic peptide) were killed. […] Consistent with its improved ability to bind LPS, CEMA was more protective resulting in 60%, 75%, and 78% survival when given to mice at doses of 50 μg, 100 μg, and 200 μg respectively. […] Thirty minutes later, the mice were sacrificed and the blood was taken and centrifuged to separate the serum which was used in the cell cytotoxic L929 assay. […] Such suppression of TNF levels in the animals injected with Dgal, CEMA, and LPS was maintained for up to 2 hours.
TNF was measured in cell culture supernatants and mouse serum on the basis of cytoxicity for L929 fibroblast cell. […] TNF activity was expressed in units as the reciprocal of the dilution of TNF that caused 50% cytotoxicity of L929 cells, as computed using the ELISA+program (Meddata, Inc., New York, N.Y.). In our hands one unit of TNF corresponded to 62.5 pg/ml of recombinant murine TNF (Genzyme Corp.).
Mice are naturally resistant to LPS. […] Endotoxic shock was induced by intraperitoneal injection of 10 or 20 μg of E. coli 0111:B4 LPS in phosphate-buffered saline (PBS), pH 7.2 into galactosamine-sensitized 8-10 week old female CD-1 mice (Galanos, C., supra; Freudenberg, M. A., Inf. Immun., 51:891, 1986). In experiments involving peptides, 50-200 μg in 100 μl sterile water injected at separate intraperitoneal sites immediately before or after LPS injection. In survival experiments, survival was monitored at 24 to 48 hours post injection. In experiments measuring TNF, blood was withdrawn by cardiac puncture at timed intervals up to 8 hours after the injections and allowed to clot prior to measurement of TNF in the serum.
To examine if the peptides were exerting their effects in animals by suppressing TNF induction, TNF was followed in response to injection of 10 μg of E. Coli 0111:B4 into galactosamine treated CD-1 mice. […] At the time points shown, blood was taken and TNF measured in the L929 cytotoxicity assay. […]

Experiment [6] deals with P. aeruginosa strain M2. The experiment is described as follows: Survival of neutropenic mice challenged intraperitoneally with bacteria. The class given is in vivo, Pseudomonas aeruginosa. How it is done:
To measure the anti-bacterial effect of peptides, a similar strategy was employed. Female CD-1 mice were rendered neutropenic with 3 injections of cyclophosphamide as described previously. (Cryz, S. J., Inf. Immun., 39(2): 1067, 1983) An […] dose of Pseudomonas aeruginosa strain M2 (approximately 10^2 organisms per mouse) was injected intra peritoneally and in the single dose experiments, 100 μl of PBS or sterile water containing 200 μg (8.7 mg/kg) of a cationic peptide was injected immediately afterwards. […] Survival was recorded at 24 and 48 hours.

[7] abbreviates: single dose 200 μg (8.7 mg/kg) i.p.
Setting [8] is: two injections at 2 hours and 12 hour after P. aeruginosa.

This is an account of results in patent US5688767A, “Treatment of endotoxin-associated disorders with cationic peptides” (priority 1996, dated 1997).

In brackets after ≈: the same amount, converted by molar mass.

What is called MIC is the least concentration at which growth counts as inhibited. Consider `CC[C@H](C)[C@H](NC(=O)CNC(=O)[C@@H](NC(=O)[C@H](CCCCN)NC(=O)[C@H](CCCCN)NC(=O)[C@H](Cc1ccccc1)NC(=O)[C@H](CC(C)C)NC(=O)[C@H](CCCCN)NC(=O)[C@H](Cc1c[nH]c2ccccc12)NC(=O)[C@@H](N)CCCCN)[C@@H](C)CC)C(=O)NCC(=O)N[C@@H](C)C(=O)N[C@H](C(=O)N[C@@H](CC(C)C)C(=O)N[C@@H](CCCCN)C(=O)N[C@H](C(=O)N[C@@H](CC(C)C)C(=O)N[C@H](C(=O)N[C@H](C(=O)NCC(=O)N[C@@H](CC(C)C)C(=O)N1CCC[C@H]1C(=O)N[C@@H](C)C(=O)N[C@@H](CC(C)C)C(=O)N[C@@H](CCCCN)C(=O)N[C@@H](CC(C)C)C(=O)N[C@H](C(=O)N[C@@H](CCCCN)C(=O)O)[C@@H](C)O)[C@@H](C)O)[C@@H](C)O)C(C)C)C(C)C` [CEMA], for which the minimum inhibitory concentration (MIC) in experiment [1] was 12 µg/mL (≈ 3.91 µM); in experiment [2] it was 1 µg/mL (≈ 0.326 µM); in experiment [3], 12 µg/mL (≈ 3.91 µM). In addition, in experiment [4], the “permeabilization of outer membrane to lysozyme” value is given as “stronger permeabilizer for lysozyme than polymyxin B”. Besides, the “reduction of serum TNF levels” value in experiment [5] (200 μg CEMA injected immediately after 10 μg E. coli 0111:B4 LPS) came out at 89%. In addition, the “blood levels of TNF” value in experiment [5] (200 μg CEMA with 10 μg LPS and Dgal, at 30 minutes) is listed as 11-16 U/ml. The “duration of suppression of TNF levels” value in experiment [5] (animals injected with Dgal, CEMA, and LPS) is recorded as “up to 2 hours”. Also, the “Survival (%)” value in experiment [6] (setting [7]) stood at 43.3%; in experiment [6] (setting [8]), 55.0%. Besides, the “Survival (survivors/total)” value is 13/30 in experiment [6] (setting [7]) and 11/20 in experiment [6] (setting [8]).
